This is an account of results in US20250127913A1, “BIFUNCTIONAL FOLATE RECEPTOR BINDING COMPOUNDS” (LYCIA THERAPEUTICS, INC., priority 2021, published 2025).

By Kd is commonly meant the free concentration of one partner at which half of the binding sites on the other are occupied at equilibrium, for simple one-to-one binding.

For assay [1], the target named is T1, folate receptor beta (Homo sapiens (Human), UniProt P14207). Description: Folate receptor binding assay (fluorescence polarization). Particulars: 2.5 nM folate receptor beta, 2 nM FR-Cy probe, 2 hr incubation; read-out: FOLR2-FP. The procedure:
Folate receptor binding was measured in black 96-well plates using a fluorescence polarization assay. A fluorescent probe consisting of a folate analog linked to Cy5 (FR-Cy) was custom synthesized.
Test compounds were resuspended in DMSO and 3-fold serial dilutions were made from 300-0.015 μM (100× final concentrations). Binding reactions were conducted in 200 μl final volume in 20 mM Hepes (pH 7.5) 250 mM NaCl 0.0150 Tween-20 1% DMSO with 2.5 nM folate receptor beta (Acro Biosystems) and 2 nM probe. Fluorescence polarization was measured using λex=620 nm, λem=688 nm on an Envision plate reader (Perkin Elmer) after 2 hr incubation time. Dose responses were conducted in duplicate and normalized to the response with DMSO (high) and 1 μM folic acid (low) on each plate. IC50 values were determined by fitting to 4-parameter curves in GraphPad Prism.
In general terms: In fluorescence polarisation assays a small probe gives low polarisation when free and higher when bound to something large.

A further assay has as its target TNFα (Homo sapiens (Human), UniProt P01375). Kind of assay: TNFα binding assay (time-resolved FRET, biotinylated TNFα). Particulars: 1 nM biotinylated TNFα, 80 nM probe, 16 hr incubation; read-out: TNF-HTRF-biotin. The procedure:
TNFα binding was measured in black 96-well plates using a time-resolved FRET assay using a previously described fluorescence acceptor TNFα probe (Xiao et al J. Med. Chem. 2020). Biotinylated TNFα was purchased from Acro Biosystems. Binding reactions were conducted in 20 mM Hepes (pH 7.5) 10 mM MgCl2 0.015% Tween-20 0.05 mg/ml BSA 2% DMSO with 1 nM TNFα 0.5 nM Streptavidin-Tb and 80 nM probe. Test compounds were resuspended in DMSO and 3-fold serial dilutions were made at 100× final concentrations. Fluorescence was measured using λex=340 nm, λem=490, 520 nm on an SpectraMax M5e plate reader (Molecular Devices) after 16 hr incubation time. Dose responses were conducted in duplicate and normalized to the response with DMSO (high) and 100 nM (R)-3-(1-((3-chloro-7-fluoro-6-(2-(2-hydroxypropan-2-yl)pyrimidin-5-yl)-2-methyl-1,5-naphthyridin-4-yl)amino)ethyl)-4-fluorobenzonitrile (low) on each plate. IC50 values were determined by fitting to 4-parameter curves in GraphPad Prism.
Background: In TR-FRET formats the signal depends on donor and acceptor labels being close together.

In assay [2] the target is TNFα and streptavidin immobilized FOL2R (Homo sapiens (Human), UniProt P01375+P14207). Description: Ternary complex SPR assay. Particulars: 10 nM compound, max response normalized to expected response; for TC 150 nM- tagless TNF Normalized: 150 nM untagged TNF; for TC 300 nM- tagless TNF Normalized: 300 nM untagged TNF; for TC 60 nM taggless TNF normalized: 60 nM untagged TNF. It counts as binding. Here is the method:
Folate receptor-TNFα ternary complex SPR assays were conducted on a Biacore 8K instrument (Cytiva) using biotinylated folate receptor beta (Acro Biosystems). Folate receptor was immobilized at -1800 RU on a streptavidin chip (Cytiva) in 10 mM HEPES pH 7.5, 150 mM NaCl, 0.05% Tween 20. Untagged TNF was preincubated with 10 nM compound for 6 hr in 10 mM HEPES pH 7.5, 150 mM NaCl, 0.05 Tween 20, 2% DMSO at 25° C. Samples were then injected over the folate receptor surface at 30 μl/min with an association time of 110 s and a dissociation time of 600 s. Surfaces were regenerated with 4 M MgCl2 at 30 μl/mm for 30 s. The maximum measured response was normalized by comparison to the maximum expected response for each compound.

A further assay concerns THP-1 cells. Kind of assay: Compound mediated uptake of TNFα-pHrodo in THP-1 cells (flow cytometry). The format is cell-based. Particulars: THP-1 cells, 24 hrs. Here is the method:
THP-1 cells, a monocytic leukemia cell line that endogenously express folate receptor beta, were used as a model system to measure example compound stimulated uptake of in-house produced TNFα conjugated to the pH sensitive fluorescent dye pHrodo green (ThermoFisher Scientific #P35369).
THP-1 cells were maintained in RPMI (Gibco #61870143) with 10% v/v FBS (VWR #89510-188) with 2 mM L-alanyl-L-glutamine dipeptide, 100 units/ml penicillin and 100 μg/ml streptomycin (Gibco #15140148). Cells were pelleted, resuspended in folate-free RPMI (Gibco #27016021) and seeded at 50,000 cells per well of a 96 well plate. Example compound was added to each well as a log 2 dilution series ranging from 20 μM to 125 nM final concentration. Cells were incubated for 24 hrs and washed/resuspended in phosphate buffered saline (pH 7.4) with 1% w/v BSA. Uptake was measured using a Novocyte Advanteon Flow Cytometer (Agilent Technologies) with the […] and FITC detection configuration.

Assay [3] deals with T1, folate receptor beta. Description: Folate receptor SPR assay (biotinylated folate receptor beta on streptavidin chip). It counts as binding. The procedure: Folate receptor SPR binding assays were conducted on a Biacore 8K instrument (Cytiva) using biotinylated folate receptor beta (Acro Biosystems). Briefly, folate receptor was immobilized at -550 RU on a streptavidin chip (Cytiva) in 10 mM HEPES pH 7.5, 150 mM NaCl, 0.05% Tween 20. Multi-cycle kinetic studies were conducted with 8 compound concentrations using 2-fold dilutions in 10 mM HEPES pH 7.5, 150 mM NaCl, 0.05% Tween 20, 2% DMSO at 25° C. A flow rate or 75 μl/mmn with an association time of 120 s and a dissociation time of 600 s were used. Surfaces were regenerated with 4 M MgCl2 at 30 μl/min for 30 s. Data were fit to a 1:1 model to determine the reported binding parameters.

Chain of TNFα (P01375 77-233): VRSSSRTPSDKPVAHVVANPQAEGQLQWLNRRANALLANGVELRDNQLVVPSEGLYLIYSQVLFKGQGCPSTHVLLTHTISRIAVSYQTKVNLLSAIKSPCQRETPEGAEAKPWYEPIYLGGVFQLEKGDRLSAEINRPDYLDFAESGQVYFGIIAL
Chain of TNFα and streptavidin immobilized FOL2R (P14207 17-230): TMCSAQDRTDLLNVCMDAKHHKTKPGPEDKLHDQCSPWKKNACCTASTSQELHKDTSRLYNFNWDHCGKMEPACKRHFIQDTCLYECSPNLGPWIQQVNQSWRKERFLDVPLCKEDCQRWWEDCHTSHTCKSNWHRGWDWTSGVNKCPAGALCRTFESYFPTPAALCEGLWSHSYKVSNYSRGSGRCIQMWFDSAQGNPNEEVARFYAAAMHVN
Chain of TNFα and streptavidin immobilized FOL2R (P01375 77-233): as the sequence (P01375 77-233) above
T1 sequence (P14207 17-255): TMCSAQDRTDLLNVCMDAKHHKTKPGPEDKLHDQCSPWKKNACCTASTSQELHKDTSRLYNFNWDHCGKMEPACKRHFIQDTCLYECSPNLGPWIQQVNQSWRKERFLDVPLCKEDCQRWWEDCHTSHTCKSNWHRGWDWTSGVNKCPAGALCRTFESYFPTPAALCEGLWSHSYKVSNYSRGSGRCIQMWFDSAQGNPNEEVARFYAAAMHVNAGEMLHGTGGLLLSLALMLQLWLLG

For the molecule `Cc1nc2cc(F)c(-c3cnc(N4CCN(C(=O)COCCOCCOCCOCCN5CCN(C(=O)CC[C@H](NC(=O)c6ccc(N(C)Cc7cnc8nc(N)[nH]c(=O)c8n7)cc6)C(=O)O)CC5)CC4)nc3)nc2c(N[C@H](C)c2cc(C#N)ccc2F)c1Cl` [Compound I-78, (S)-2-(4-(((2-amino-4-oxo-3,4-dihydropteridin-6-yl)methyl)(methyl)amino)benzamido)-5-(4-(14-(4-(5-(7-chloro-8-(((R)-1-(5-cyano-2-fluorophenyl)ethyl)amino)-3-fluoro-6-methyl-1,5-naphthyridin-2-yl)pyrimidin-2-yl)piperazin-1-yl)-14-oxo-3,6,9,12-tetraoxatetradecyl)piperazin-1-yl)-5-oxopentanoic acid], the figures for the IC50 at folate receptor beta [1] and at TNFα were 9.2 nM and 13 nM, respectively.

`Cc1nc2cc(F)c(-c3cnc(N4CCN(C(=O)COCCn5cc(COCCOCCOCCOCCNC(=O)CC[C@H](NC(=O)c6ccc(NCc7cnc8nc(N)nc(O)c8n7)cc6)C(=O)O)nn5)CC4)nc3)nc2c(N[C@H](C)c2cc(C#N)ccc2F)c1Cl` [Compound I-45, (S)-18-(4-(((2-amino-4-hydroxypteridin-6-yl)methyl)amino)benzamido)-1-(1-(2-(2-(4-(5-(7-chloro-8-(((R)-1-(5-cyano-2-fluorophenyl)ethyl)amino)-3-fluoro-6-methyl-1,5-naphthyridin-2-yl)pyrimidin-2-yl)piperazin-1-yl)-2-oxoethoxy)ethyl)-1H-1,2,3-triazol-4-yl)-15-oxo-2,5,8,11-tetraoxa-14-azanonadecan-19-oic acid]: the IC50 at folate receptor beta [1] is 4.2 nM. On TNFα, the IC50 was found to be 25 nM. Besides, in assay [2], the “TC 150 nM- tagless TNF Normalized” value was 16.3% and the “TC 300 nM- tagless TNF Normalized” value came to 17.6%.

As to `C[C@@H]1CN(c2ncc(-c3ccc4c(c3)N(Cc3ccccc3OC(F)F)C(C)(C)C4=O)cn2)CCN1C(=O)COCCOCCOCCOCCOCCOCCn1cc(CC[C@H](NC(=O)c2ccc(NCc3cnc4nc(N)nc(O)c4n3)cc2)C(=O)O)nn1` [Compound I-88, (S)-2-(4-(((2-amino-4-hydroxypteridin-6-yl)methyl)amino)benzamido)-4-(1-(20-((R)-4-(5-(1-(2-(difluoromethoxy)benzyl)-2,2-dimethyl-3-oxoindolin-6-yl)pyrimidin-2-yl)-2-methylpiperazin-1-yl)-20-oxo-3,6,9,12,15,18-hexaoxaicosyl)-1H-1,2,3-triazol-4-yl)butanoic acid], the IC50 is 6.9 nM at folate receptor beta [1] and 60 nM at TNFα.

Regarding `CN(Cc1cnc2nc(N)[nH]c(=O)c2n1)c1ccc(C(=O)N[C@@H](CCc2cn(CCOCCOCCOCCOCCOCCOCC(=O)N3CCN(c4ncc(-c5ccc6nc(COc7cccc(N8CCCC8=O)c7)n(Cc7ccccc7OC(F)F)c6c5)cn4)CC3)nn2)C(=O)O)cc1` [Compound I-83, (S)-2-(4-(((2-amino-4-oxo-3,4-dihydropteridin-6-yl)methyl)(methyl)amino)benzamido)-4-(1-(20-(4-(5-(1-(2-(difluoromethoxy)benzyl)-2-((3-(2-oxopyrrolidin-1-yl)phenoxy)methyl)-1H-benzo[d]imidazol-6-yl)pyrimidin-2-yl)piperazin-1-yl)-20-oxo-3,6,9,12,15,18-hexaoxaicosyl)-1H-1,2,3-triazol-4-yl)butanoic acid], the IC50 at folate receptor beta [1] was 5.3 nM; at TNFα, 28 nM. Moreover, the “TC 60 nM taggless TNF normalized” value in assay [2] is given as 14.3%. For the same molecule, the “TC 300 nM- tagless TNF Normalized” value in assay [2] turned out to be 17.5%.

Take `Cc1nc2cc(F)c(-c3cnc(N4CCN(C(=O)COCCOCCOCCOCCOCCOCCn5cc(CC[C@H](NC(=O)c6ccc(SCc7ccc8nc(N)nc(O)c8c7)cc6)C(=O)O)nn5)CC4)nc3)nc2c(N[C@H](C)c2cc(C#N)ccc2F)c1Cl` [Compound I-79, (S)-2-(4-(((2-amino-4-hydroxyquinazolin-6-yl)methyl)thio)benzamido)-4-(1-(20-(4-(5-(7-chloro-8-(((R)-1-(5-cyano-2-fluorophenyl)ethyl)amino)-3-fluoro-6-methyl-1,5-naphthyridin-2-yl)pyrimidin-2-yl)piperazin-1-yl)-20-oxo-3,6,9,12,15,18-hexaoxaicosyl)-1H-1,2,3-triazol-4-yl)butanoic acid]: the IC50 worked out at 3.2 nM on folate receptor beta [1] and 17 nM at TNFα.

`Cc1nc2cc(F)c(-c3cnc(OCCCCCn4cc(COCCOCCOCCOCCNC(=O)[C@H](CCC(=O)O)NC(=O)c5ccc(NCc6cnc7nc(N)nc(O)c7n6)cc5)nn4)nc3)nc2c(N[C@H](C)c2cc(C#N)ccc2F)c1Cl` [Compound 1-21]: the “uptake of labelled TNFα (median fluorescence intensity of pHrodo dye)” value in the assay with THP-1 cells was “stimulate uptake of TNFα”.

`Cc1nc2cc(F)c(-c3cnc(N4CC5(CN(C(=O)COCCOCCOCCOCCOCCOCCn6cc(CC[C@H](NC(=O)c7ccc(NCc8cnc9nc(N)nc(O)c9n8)cc7)C(=O)O)nn6)C5)C4)nc3)nc2c(N[C@H](C)c2cc(C#N)ccc2F)c1Cl` [Compound I-81, (S)-2-(4-(((2-amino-4-hydroxypteridin-6-yl)methyl)amino)benzamido)-4-(1-(20-(6-(5-(7-chloro-8-(((R)-1-(5-cyano-2-fluorophenyl)ethyl)amino)-3-fluoro-6-methyl-1,5-naphthyridin-2-yl)pyrimidin-2-yl)-2,6-diazaspiro[3.3]heptan-2-yl)-20-oxo-3,6,9,12,15,18-hexaoxaicosyl)-1H-1,2,3-triazol-4-yl)butanoic acid]: the IC50 on folate receptor beta [1] amounted to 7.1 nM; at TNFα, 39 nM. Besides, the “TC 60 nM taggless TNF normalized” value in assay [2] was 4%. In assay [2], the “TC 300 nM- tagless TNF Normalized” value was 12.1%.

`Cc1nc2cc(F)c(-c3cnc(N4CCN(C(=O)COCCn5cc(COCCOCCOCCN6CCN(C(=O)[C@H](CCC(=O)O)NC(=O)c7ccc(NCc8cnc9nc(N)nc(O)c9n8)cc7)CC6)nn5)CC4)nc3)nc2c(N[C@H](C)c2cc(C#N)ccc2F)c1Cl` [Compound I-97]: the Rmax at folate receptor beta [3] (biotinylated folate receptor beta on streptavidin chip) is recorded as 17.1 RU. This molecule showed a kd on folate receptor beta [3] (multi-cycle kinetics, 25° C., 1:1 model) of 0.000798 s⁻¹. Moreover, on folate receptor beta [3] (multi-cycle kinetics, 25° C., 1:1 model, read-out: FOLR2Biotin - SPR Kd), the Kd was determined as 0.0914 nM. The kon at folate receptor beta [3] (pH 7.5, multi-cycle kinetics, 25° C., 1:1 model, read-out: ka) worked out at 8.74e+06 M⁻¹ s⁻¹. Further, the IC50 at folate receptor beta [1] is 17 nM. Also, in assay [2], the “TC 150 nM- tagless TNF Normalized” value is given as 18.4% and the “TC 300 nM- tagless TNF Normalized” value is given as 21.1%.
